According to publication PMC5706701, “Development of a homogenous high-throughput assay for inositol hexakisphosphate kinase 1 activity” (PLoS ONE, 2017):
Structures can show the parent of a compound that is named as a salt. Where two headings read alike, the source gives them in different places.

Molecular target: T1, Human IP6K1 (Homo sapiens, UniProt Q92551)
T1 construct: GST (N, cleaved yes); made in house; host or cells: C43 E. coli, pGEX-6P-2
Assay: IP6K1 high-throughput screen of the Sigma LOPAC (ADP-Glo Max, single point);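 also: final compound concentration 10µM in 5% DMSO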
Format: biochemical

[1] = LOPAC single-point screen, ADP-Glo Max raw signal per well
[2] = LOPAC single-point screen, Z-score from raw signal with plate average and StDev
[3] = LOPAC single-point screen, Z-score against plate average and StDev
[4] = Sigma LOPAC single-point screen, ADP-Glo Max raw signal per well
[5] = Sigma LOPAC single-point screen, Z-score from plate average and StDev
[6] = LOPAC single-point screen, ADP-Glo Max luminescence raw signal per well
[7] = LOPAC single-point screen, Z-score relative to plate average and StDev
[8] = LOPAC single-point screen, Z-score from plate average and StDev

T1 sequence (Q92551 whole entry): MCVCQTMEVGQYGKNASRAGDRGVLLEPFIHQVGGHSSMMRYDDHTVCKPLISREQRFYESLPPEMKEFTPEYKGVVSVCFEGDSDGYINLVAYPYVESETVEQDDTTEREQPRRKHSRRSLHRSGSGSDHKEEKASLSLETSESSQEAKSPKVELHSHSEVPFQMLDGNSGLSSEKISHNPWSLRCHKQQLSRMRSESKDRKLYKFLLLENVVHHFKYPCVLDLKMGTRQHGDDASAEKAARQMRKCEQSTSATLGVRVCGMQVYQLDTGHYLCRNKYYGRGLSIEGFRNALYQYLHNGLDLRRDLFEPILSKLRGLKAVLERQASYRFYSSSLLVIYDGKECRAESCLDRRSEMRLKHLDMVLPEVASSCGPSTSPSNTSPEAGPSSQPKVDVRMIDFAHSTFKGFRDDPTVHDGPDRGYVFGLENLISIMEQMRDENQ

Molecule: O=C(O)c1cc(O)cc(C(=O)O)n1 [Chelidamic acid]
- Raw Signal [1]: 56074
- Z-score [2]: -0.3239

Molecule: CCN1C(=O)C=CC1=O [N-Ethylmaleimide]
- Raw Signal [1]: 55064
- Z-score [3]: -0.02093

Molecule: CC(=O)NCCc1ccc(O)c(O)c1.O [N-Acetyldopamine monohydrate]
- Raw Signal [4]: 60782
- Z-score [5]: 0.5053

Molecule: N[C@@H](CCCC(=O)O)C(=O)O [L-2-aminoadipic acid]
- Raw Signal [1]: 59199
- Z-score [3]: 0.2265

Molecule: N#CC(=C(/N)Sc1ccccc1N)/C(C#N)=C(/N)Sc1ccccc1N [U0126]
- Raw Signal [1]: 55334
- Z-score [2]: -0.134

Molecule: c1ccc(C2CC2)c(OCC2=NCCN2)c1 [Cirazoline hydrochloride]
- Raw Signal [6]: 48676
- Z-score [7]: -1.318

Molecule: Cl.NCCCCCCNS(=O)(=O)c1cccc2c(Cl)cccc12 [W-7 hydrochloride]
- Raw Signal [1]: 57979
- Z-score [3]: 0.01161

Molecule: CN(C)C(=O)Oc1cccc([N+](C)(C)C)c1 [Neostigmine bromide]
- Raw Signal [1]: 55937
- Z-score [3]: 0.2593

Molecule: Nc1ccncc1 [4-Aminopyridine]
- Raw Signal [1]: 56638
- Z-score [2]: -0.2246

Molecule: O=C(O)C1CN(CCCP(=O)(O)O)CCN1 (racemic) [(±)-CPP]
- Raw Signal [4]: 59493
- Z-score [5]: 0.8786

Molecule: L-Methionine sulfoximine
- Raw Signal: 58334
- Z-score: 0.6621

Molecule: CC(C)(C)NCC(O)c1ccc(O)c(CO)c1.CC(C)(C)NCC(O)c1ccc(O)c(CO)c1.O=S(=O)(O)O (centres unmarked) [Albuterol hemisulfate]
- Raw Signal [1]: 54773
- Z-score [2]: -0.243

Molecule: [Cl-].[Li+] [Lithium Chloride]
- Raw Signal [4]: 59222
- Z-score [5]: 0.8235

Molecule: COC(=O)[C@@H]1[C@H]2C[C@H]3c4[nH]c5ccccc5c4CCN3C[C@@H]2CC[C@@H]1O [Yohimbine hydrochloride]
- Raw Signal [1]: 57737
- Z-score [3]: 0.3328

Molecule: OC[C@H]1NC[C@H](O)[C@@H](O)[C@@H]1O [1-Deoxynojirimycin hydrochloride]
- Raw Signal [4]: 59013
- Z-score [5]: 0.7811

Molecule: O=Nc1ccc2oc(=O)ccc2c1 [6-Nitroso-1,2-benzopyrone]
- Raw Signal [4]: 57563
- Z-score [5]: 0.5326

Molecule: CC(C)(C)NCC(O)c1ccccc1Cl (centres unmarked) [Tulobuterol hydrochloride]
- Raw Signal [1]: 54303
- Z-score [2]: -0.3343

Molecule: CCC1(C2=NCCN2)Cc2ccccc2O1 (centres unmarked) [Efaroxan hydrochloride]
- Raw Signal [1]: 53966
- Z-score [2]: -0.2439

Molecule: N[C@H](CCC(=O)NCS(=O)(=O)O)C(=O)O [gamma-D-Glutamylaminomethylsulfonic acid]
- Raw Signal [4]: 58321
- Z-score [5]: 0.6405

Molecule: N[C@@H](Cn1ccc(=O)[nH]c1=O)C(=O)O [S(-)-Willardiine]
- Raw Signal [1]: 55281
- Z-score [2]: -0.1443

Molecule: CCc1cccc2c3c([nH]c12)C(CC)(CC(=O)O)OCC3 (centres unmarked) [Etodolac]
- Raw Signal [4]: 60333
- Z-score [5]: 1.049

Molecule: CCn1ccnc1CC1COc2ccccc2O1 (centres unmarked) [Imiloxan hydrochloride]
- Raw Signal [1]: 52626
- Z-score [2]: -0.297

Molecule: Cc1nc2n(c(=O)c1CCN1CCC(c3noc4cc(F)ccc34)CC1)CCCC2 [Risperidone]
- Raw Signal [6]: 53532
- Z-score [7]: -0.4841

Molecule: C[C@]12CCC(=O)C=C1CC[C@@H]1[C@@H]2[C@@H](O)C[C@@]2(C)[C@H]1CC[C@]2(O)C(=O)COC(=O)CCC(=O)[O-].[Na+] [Hydrocortisone 21-hemisuccinate sodium]
- Raw Signal [4]: 57689
- Z-score [5]: 0.5122

Molecule: COc1ccc([C@@H]2Sc3ccccc3N(CCN(C)C)C(=O)[C@@H]2OC(C)=O)cc1 [Diltiazem hydrochloride]
- Raw Signal [6]: 65486
- Z-score [8]: 2.096

Molecule: CSc1ccc2c(c1)N(CCC1CCCCN1C)c1ccccc1S2 (centres unmarked) [Thioridazine hydrochloride]
- Raw Signal [1]: 57676
- Z-score [3]: 0.321

Molecule: COC(=O)c1c(-c2cc(OC)c(OC)c(OC)c2)c2ccnc(OCc3ncccn3)c2c(=O)n1Cc1ccnc(C)c1 [T-0156]
- Raw Signal [6]: 53574
- Z-score [7]: -0.476

Molecule: Nc1ccc(N2C(=O)c3ccccc3C2=O)c(Cl)c1 [N-(4-Amino-2-chlorophenyl)phthalimide]
- Raw Signal [4]: 61206
- Z-score [5]: 0.58

Molecule: CC[C@@H]1C(=O)OC[C@@H]1Cc1cncn1C [Pilocarpine nitrate]
- Raw Signal [4]: 59730
- Z-score [5]: 0.8967

Molecule: CN(C)S(=O)(=O)c1ccc2c(c1)/C(=C/c1cc3c([nH]1)CCCC3)C(=O)N2 [SU 6656]
- Raw Signal [1]: 57564
- Z-score [3]: 0.2992

Molecule: CCOC(=O)C1=C(C)NC(C)=C(C(=O)OC)C1c1cccc(Cl)c1Cl (centres unmarked) [Felodipine]
- Raw Signal [6]: 52611
- Z-score [7]: -0.5191

Molecule: COc1ccc(CCN(C)CCCC(C#N)(c2ccc(OC)c(OC)c2)C(C)C)cc1OC.Cl (racemic) [(±)-Verapamil hydrochloride]
- Raw Signal [6]: 63315
- Z-score [8]: 1.417

Molecule: CNC(=O)[C@H]1O[C@@H](n2cnc3c(N)ncnc32)[C@H](O)[C@@H]1O [5 -N-Methyl carboxamidoadenosine]
- Raw Signal [6]: 66682
- Z-score [8]: 1.544

Molecule: CN(C)CCC(c1ccc(Cl)cc1)c1ccccn1.O=C(O)/C=C\C(=O)O (racemic) [(±)-Chlorpheniramine maleate]
- Raw Signal [4]: 60371
- Z-score [5]: 0.4329

Molecule: COc1cc(C(O)CO)ccc1OS(=O)(=O)[O-].[K+] (centres unmarked) [MHPG sulfate potassium]
- Raw Signal [1]: 56093
- Z-score [3]: 0.1881

Molecule: COc1cc2nc(N3CCN(C(=O)C4CCCO4)CC3)nc(N)c2cc1OC (centres unmarked) [Terazosin hydrochloride]
- Raw Signal [1]: 54152
- Z-score [2]: -0.3637

Molecule: O=C(c1ccc(F)cc1)C1CCN(CCn2c(=O)[nH]c3ccccc3c2=O)CC1 [Ketanserin tartrate]
- Raw Signal [4]: 61310
- Z-score [5]: 1.027

Molecule: OC[C@H]1O[C@@H](n2cnc3c(NC4CCCCC4)ncnc32)[C@H](O)[C@@H]1O [N6-Cyclohexyladenosine]
- Raw Signal [4]: 60438
- Z-score [5]: 1.07

Molecule: CN1CCc2cccc(Cl)c2CC1 [SKF 86466]
- Raw Signal [1]: 54503
- Z-score [2]: -0.2955

Molecule: NC(=O)c1ccc(OCC(O)CN2CC=C(c3ccc(F)cc3)CC2)cc1 (centres unmarked) [Ro 8-4304]
- Raw Signal [6]: 63292
- Z-score [8]: 1.412

Molecule: N#C/C(=C\c1ccc(O)c(O)c1)C(=O)NCc1ccccc1 [Tyrphostin AG 490]
- Raw Signal [1]: 54184
- Z-score [2]: -0.3574

Molecule: COc1ccc2[nH]cc(CCN)c2c1.Cl [O-Methylserotonin hydrochloride]
- Raw Signal [1]: 53655
- Z-score [2]: -0.1241

Molecule: CC(=O)[C@H]1CC[C@H]2[C@@H]3CC=C4C[C@@H](OS(=O)(=O)[O-])CC[C@]4(C)[C@H]3CC[C@]12C.[Na+] [Pregnenolone sulfate sodium]
- Raw Signal [6]: 62981
- Z-score [8]: 1.352

Molecule: NC(=Nc1ccccc1)NC(=O)c1nc(Cl)c(N)nc1N [Phenamil methanesulfonate]
- Raw Signal [6]: 52022
- Z-score [7]: -0.7775

Molecule: CCn1nc(C(=O)O)c(=O)c2cc3c(cc21)OCO3 [Cinoxacin]
- Raw Signal [1]: 58068
- Z-score [3]: 0.02728

Molecule: Cc1nc2sccn2c(=O)c1CCN1CCC(=C(c2ccccc2)c2ccc(F)cc2)CC1 [Diacylglycerol kinase inhibitor I]
- Raw Signal [4]: 59347
- Z-score [5]: 0.8489

Molecule: NC(=O)c1cnccn1 [Pyrazinecarboxamide]
- Raw Signal [4]: 58526
- Z-score [5]: 0.4861

Molecule: CN(Cc1cnc2nc(N)nc(N)c2n1)c1ccc(C(=O)N[C@@H](CCC(=O)O)C(=O)O)cc1 [(-)Amethopterin]
- Raw Signal [4]: 61362
- Z-score [5]: 0.6074

Molecule: COc1ccc2c(c1OC)C(=O)O[C@@H]2[C@H]1c2c(cc3c(c2OC)OCO3)CCN1C.Cl [Noscapine hydrchloride]
- Raw Signal [1]: 53510
- Z-score [2]: -0.1485

Molecule: C[N+]1(C)[C@@H]2CC[C@H]1C[C@@H](OC(=O)C(CO)c1ccccc1)C2 (some centres unmarked) [Atropine methyl nitrate]
- Raw Signal [4]: 60117
- Z-score [5]: 0.3882

Molecule: CCN(CC)CCOC(=O)c1cc(Cl)c(N)cc1OC.Cl [SDZ-205,557 hydrochloride]
- Raw Signal [1]: 56215
- Z-score [3]: 0.03715

Molecule: C[C@]12C=CC(=O)C=C1CC[C@H]1[C@@H]3C[C@@H](O)[C@](O)(C(=O)CO)[C@@]3(C)C[C@H](O)[C@@]12F [Triamcinolone]
- Raw Signal [4]: 60096
- Z-score [5]: 0.7912

Molecule: O=c1onc2n1-c1cc(Br)ccc1OC2 [NS 2028]
- Raw Signal [1]: 54790
- Z-score [3]: 0.06662

Molecule: Cc1cc(C)c(NC(=O)C[C@H](CC(=O)O)c2cccc3ccccc23)c(C(=O)N2CCC3(CCCC3)CC2)c1 [CR 2945]
- Raw Signal [1]: 55023
- Z-score [3]: 0.1058

Molecule: NCCc1c[nH]c2ccc(C(N)=O)cc12.O=C(O)/C=C\C(=O)O [5-Carboxamidotryptamine maleate]
- Raw Signal [6]: 52599
- Z-score [7]: -0.5215

Molecule: CC(C)N(CCC(=O)c1ccc2ccccc2c1)Cc1ccccc1.Cl [ZM 39923 hydrochloride]
- Raw Signal [1]: 54461
- Z-score [3]: 0.01134

Molecule: Nc1ccc(CCNc2ncnc3c2ncn3[C@@H]2O[C@H](CO)[C@@H](O)[C@H]2O)cc1 [N6-2-(4-Aminophenyl)ethyladenosine]
- Raw Signal [6]: 51199
- Z-score [7]: -1.183

Molecule: CC(C(O)c1ccc(O)cc1)N1CCC(Cc2ccccc2)CC1.CC(C(O)c1ccc(O)cc1)N1CCC(Cc2ccccc2)CC1.O=C(O)C(O)C(O)C(=O)O (centres unmarked) [Ifenprodil tartrate]
- Raw Signal [1]: 56294
- Z-score [3]: 0.3193

Molecule: CC(=O)c1c(O)c(C)c(O)c(Cc2c(O)c3c(c(C(=O)/C=C/c4ccccc4)c2O)OC(C)(C)C=C3)c1O [Rottlerin]
- Raw Signal [1]: 55469
- Z-score [2]: -0.1078

Molecule: O=S(=O)(c1cccc2c(Cl)cccc12)N1CCCNCC1 [ML-9]
- Raw Signal [1]: 57828
- Z-score [3]: -0.01499

Molecule: CCCc1c(-c2ccc(O)cc2)nn(-c2ccc(O)cc2)c1-c1ccc(O)cc1
- Raw Signal [6]: 52149
- Z-score [7]: -0.6129
